Values after ≈ are worked out from the molar mass of the structure shown. Like-named read-outs stand apart in the source and are kept apart here.
Legend:
[1] = Human serum binding by ultrafiltration; assay type: in vitro ADME
Experimental: Binding of several representative compounds of this invention in pooled human serum was determined using ultrafiltration. Compounds were incubated in serum for 10 minutes at 37° C. in a shaking water bath. Serum ultrafiltrate was accomplished by centrifugation (Amicon Centrifree) for 20 minutes at 25° C. Compound content in the ultrafiltrate was quantified by HPLC. An ultrafilrate obtained by following the same procedure with no added compound was used as a standard.

[2] = test system: Enterococcus faecalis ATCC 29212; test: Broth microdilution MIC, E. faecalis ATCC 29212; assay type: cell-based; conditions: Enterococcus faecalis ATCC 29212; for MIC: ATCC29212, read-out: MIC E. f. 29212
Experimental: (§1) Compounds were evaluated for antimicrobial activity against a panel of bacterial strains using a broth microdilution assay performed as recommended by the NCCLS (NCCLS (National Committee for Clinical Laboratory Standards). 1993. Methods for dilution antimicrobial susceptibility tests for bacteria that grow aerobically. NCCLS Document M7-A3, 1993. In: NCCLS Antimicrobial Susceptibility Testing, 3rd Ed.)
(§2) The minimum inhibitory concentration (MIC) is defined as the lowest concentration of a compound that prevents the growth of the bacteria.

[3] = test system: Staphylococcus aureus ATCC 29213 (MSSA); test: Broth microdilution MIC, S. aureus ATCC 29213; assay type: cell-based; conditions: Staphylococcus aureus ATCC 29213 (MSSA); for MIC: read-out: MIC S. a. 29213
Experimental: as §1, §2

S. aureus strain Smith = test: Experimental infection of mice, ED50; assay type: in vivo, Swiss-Webster mice; conditions: 50% efficacious dose, S. aureus Smith, mice challenged intraperitoneally, compound subcutaneously at 0 and 2 h, total dose, 72 h survival
Experimental: Staphylococcus aureus strain Smith (ATCC 13709, penicillin-susceptible) or strain 76 (methicillin-resistant) was cultured overnight at 37° C. in brain-heart infusion broth (BHIB). The following morning, a portion of the culture was transferred to fresh BHIB and incubated for an additional 4-5 hours at 37° C. The cells were harvested by centrifugation, washed twice with PBS, and adjusted to the desired inoculum amount. The cell suspension was mixed with an equal volume of sterile 14% hog-gastric mucin (Comber K. R.; Osborne C. D.; Sutherland R.: Comparative effects of amoxicillin and ampicillin in the treatment of experimental mouse infections. Antimicrobial Agents and Chemotherapy 7(2):179-185, 1975). The inoculum was kept in an ice bath until used (preferably in less than one hour).
Male Swiss-Webster mice were challenged intraperitoneally with 0.5 mL of a bacterial suspension of S. aureus strain Smith (LD50). Test compounds were administered subcutaneously in 0.1 mL volumes immediately after inoculation and 2 hours later. […] The total dose associated with 50% survival (ED50) was determined using the probit method (Pasiello, A. P., J. M. Essigmann, and G. N. Wogan.: Rapid and accurate determination of median lethal dose (LD50) and its error with a small computer. J Toxicol. Environ. Health. 3:797-809, 1977).

[4] = test system: Staphylococcus aureus 76 (MRSA, β-lactamase producing); test: Broth microdilution MIC, S. aureus 76; assay type: cell-based; conditions: Staphylococcus aureus 76 (MRSA, β-lactamase producing); for MIC: read-out: MIC S. a. 76
Experimental: as §1, §2

[5] = Human serum binding estimated from serum effect on MIC (HSB*); assay type: in vitro ADME
Description: An estimate of human serum binding (HSB*) was obtained for some compounds using the MIC values against S. aureus ATCC 29213 determined in growth medium (GM) and in a 1:1 mixture of growth medium and human serum (GM+HS):
HSB*=(MICGM+HS−MICGM)/MICGM 100%

[6] = test system: Enterococcus faecium ATCC 35667; test: Broth microdilution MIC, E. faecium ATCC 35667; assay type: cell-based; conditions: Enterococcus faecium ATCC 35667; for MIC: ATCC35667, read-out: MIC E. f. 35667
Experimental: as §1, §2

[7] = test system: Staphylococcus aureus COL (MRSA, non-β-lactamase producing); test: Broth microdilution MIC, S. aureus COL; assay type: cell-based; conditions: Staphylococcus aureus COL (MRSA, non-β-lactamase producing); for MIC: read-out: MIC S. a. COL
Experimental: as §1, §2

[8] = test system: Staphylococcus aureus Smith (MSSA); test: Broth microdilution MIC, S. aureus Smith; assay type: cell-based; conditions: Staphylococcus aureus Smith (MSSA); for MIC: read-out: MIC S. a. Smith
Experimental: as §1, §2

[9] = pooled human serum, ultrafiltration, 10 minutes at 37° C.
[10] = MIC against S. aureus ATCC 29213 in growth medium vs 1:1 growth medium and human serum

Row | SMILES | HSB, human serum binding [1] [%] | MIC E. f. 29212 [2] [µg/mL] | MIC S. a. 29213 [3] [µg/mL] | ED50, mg/kg (95% C.I.) (S. aureus strain Smith) | MIC S. a. 76 [4] [µg/mL] | HSB*, human serum binding calculated using serum effect on MIC [5] [%] | MIC E. f. 35667 [6] [µg/mL] | MIC S. a. COL [7] [µg/mL] | MIC S. a. Smith [8] [µg/mL] | HSB, human serum binding [1, 9] [%] | MIC [2] [µg/mL] | MIC [3] [µg/mL] | MIC [4] [µg/mL] | HSB*, human serum binding calculated using serum effect on MIC [5, 10] [%] | MIC [6] [µg/mL] | MIC [7] [µg/mL] | MIC [8] [µg/mL]
1 | NC(=O)CSCc1cnccc1SC1=C(C(=O)O)N2C(=O)[C@@H](NC(=O)/C(=N\O)c3nc(N)sc3Cl)[C@H]2SC1 [Compound 22] | 94 | 0.5 (≈ 0.812 µM) | 0.5 (≈ 0.812 µM) | 1.15 (0.7-1.6) mg/kg | 4 (≈ 6.49 µM) | 88 | 1 (≈ 1.62 µM) | 4 (≈ 6.49 µM) | 0.25 (≈ 0.406 µM) |  |  |  |  |  |  |  | 
2 | Nc1nnc(SC2=C(C(=O)O)N3C(=O)[C@@H](NC(=O)C(=NO)c4nc(N)sc4Cl)C3SC2)s1 (stereo partly drawn) [Compound 36, (7R)-7-[2-(2-amino-5-chlorothiazol-4-yl)-2-hydroxyiminoacetylamino]-3-(5-amino-[1,3,4]thiadiazol-2-ylsulfanyl)-8-oxo-5-thia-1-aza-bicyclo[4.2.0]oct-2-ene-2-carboxylic acid] |  |  |  |  |  |  |  |  |  | 90 | 0.25 (≈ 0.467 µM) | 0.25 (≈ 0.467 µM) | 2 (≈ 3.74 µM) | 94 | 1 (≈ 1.87 µM) | 1 (≈ 1.87 µM) | 0.25 (≈ 0.467 µM)
3 | Nc1nc(C(=NO)C(=O)N[C@@H]2C(=O)N3C(C(=O)O)=C(Sc4nnc(N)s4)CSC23)ns1 (stereo partly drawn) [Compound 37, (7R)-7-[2-(5-Amino-[1,2,4]thiadiazol-3-yl)-2-hydroxyimino-acetylamino]-3-(5-amino-[1,3,4]thiadiazol-2-ylsulfanyl)-8-oxo-5-thia-1-aza-bicyclo[4.2.0]oct-2-ene-2-carboxylic acid] |  |  |  |  |  |  |  |  |  | 79 | 2 (≈ 3.99 µM) | 0.25 (≈ 0.498 µM) | 4 (≈ 7.98 µM) | 50 | 1 (≈ 1.99 µM) | 4 (≈ 7.98 µM) | 0.125 (≈ 0.249 µM)
4 | Nc1nc(C(=NO)C(=O)N[C@@H]2C(=O)N3C(C(=O)O)=C(Sc4nnc[nH]4)CSC23)c(Cl)s1 (stereo partly drawn) [Compound 40, (7R)-7-[2-(2-Amino-5-chlorothiazol-4-yl)-2-hydroxyimino-acetylamino]-8-oxo-3-(4H-[1,2,4]triazol-3-ylsulfanyl)-5-thia-1-aza-bicyclo[4.2.0]oct-2-ene-2-carboxylic acid] |  |  |  |  |  |  |  |  |  | 92 | 1 (≈ 1.99 µM) | 0.25 (≈ 0.497 µM) | 8 (≈ 15.9 µM) | 88 | 4 (≈ 7.95 µM) | 8 (≈ 15.9 µM) | 0.5 (≈ 0.994 µM)
5 | Nc1nc(C(=NO)C(=O)N[C@@H]2C(=O)N3C(C(=O)O)=C(Sc4nncs4)CSC23)c(Cl)s1 (stereo partly drawn) [Compound 41, (7R)-7-[2-(2-Amino-5-chlorothiazol-4-yl)-2-hydroxyiminoacetylamino]-8-oxo-3-([1,3,4]thiadiazol-2-ylsulfanyl)-5-thia-1-aza-bicyclo[4.2.0]oct-2-ene-2-carboxylic acid] |  |  |  |  |  |  |  |  |  | 91 | 0.25 (≈ 0.481 µM) | 0.125 (≈ 0.24 µM) | 1 (≈ 1.92 µM) | 98 | 0.5 (≈ 0.962 µM) | 1 (≈ 1.92 µM) | 0.125 (≈ 0.24 µM)
6 | Nc1nnc(SC2=C(C(=O)O)N3C(=O)[C@@H](NC(=O)C(=NOCCF)c4nc(N)sc4Cl)C3SC2)s1 (stereo partly drawn) [Compound 42, (7R)-7-[2-(2-Amino-5-chlorothiazol-4-yl)-2-(2-fluoroethoxyimino)-acetylamino]-3-(5-amino-[1,3,4]thiadiazol-2-ylsulfanyl)-8-oxo-5-thia-1-aza-bicyclo[4.2.0]oct-2-ene-2-carboxylic acid] |  |  |  |  |  |  |  |  |  | 65 | 1 (≈ 1.72 µM) | 0.5 (≈ 0.86 µM) | 2 (≈ 3.44 µM) | 75 | 4 (≈ 6.88 µM) | 2 (≈ 3.44 µM) | 0.25 (≈ 0.43 µM)
7 | NCCSCc1cnccc1SC1=C(C(=O)O)N2C(=O)[C@@H](NC(=O)/C(=N\O)c3nc(N)sc3Cl)[C@H]2SC1 [RWJ 54428, reference compound] |  | 0.06 (≈ 0.0996 µM) | 0.25 (≈ 0.415 µM) | 1.0 (0.7-1.6) mg/kg | 1 (≈ 1.66 µM) |  | 0.25 (≈ 0.415 µM) | 0.5 (≈ 0.83 µM) | 0.125 (≈ 0.208 µM) | 84 |  |  |  | 67 |  |  | 

From US6599893B2, “Cephalosporin antibiotics and prodrugs thereof” (Essential Therapeutics, Inc., priority 2000, dated 2003)
